In ChEMBL document CHEMBL3880410, “Novel oxabispidine compounds and their use in the treatment of cardiac arrhythmias” (2009):

test system: Cavia porcellus; test: Anti-cardiac arrhythmia activity in anaesthetised guinea pig assessed as cumulative dose inducing prolongation of monophasic action potential duration by 10% from baseline administered as first dose infusion in 0.2 mL/kg into jugular vein catheter for 30 secs followed by next dosing after 5 mins for 6 to 10 consecutive times by electrophysiology based assay; assay type: functional

Structure (SMILES) | D10 [mg/kg]
N#Cc1ccc(OCCCN2CC3CN(CCNS(=O)(=O)c4cccc(C#N)c4)CC(C2)O3)cc1 | >5.5
N#Cc1ccc(OCCCN2CC3CN(CCNS(=O)(=O)c4ccc5c(c4)CCO5)CC(C2)O3)cc1 | >5.5
Cc1noc(C)c1S(=O)(=O)NCCCN1CC2CN(Cc3ccc(C#N)cc3)CC(C1)O2 | >5.5
N#Cc1ccc(S(=O)(=O)NCCCN2CC3CN(CCOc4ccc(C#N)cc4F)CC(C2)O3)cc1 | >5.5
N#Cc1ccc(OCCN2CC3CN(CCNS(=O)(=O)c4cccc(F)c4)CC(C2)O3)cc1 | >5.5
N#Cc1ccc(OCCN2CC3CN(CCCNS(=O)(=O)c4ccccc4)CC(C2)O3)cc1 | >5.5
N#Cc1ccc(OCCN2CC3CN(CCNS(=O)(=O)c4ccccc4F)CC(C2)O3)cc1 | >5.5
N#Cc1ccc(OCCCN2CC3CN(CCNS(=O)(=O)c4ccccc4OC(F)(F)F)CC(C2)O3)cc1 | >5.5
Cc1noc(C)c1S(=O)(=O)NCCN1CC2CN(Cc3ccc(C#N)cc3)CC(C1)O2 | >5.5
Cc1oncc1S(=O)(=O)NCCN1CC2CN(CCCOc3ccc(C#N)cc3)CC(C1)O2 | >5.5
Cc1noc(C)c1CN1CC2CN(CCNS(=O)(=O)c3ccc(C#N)cc3)CC(C1)O2 | >5.5
CC(C)S(=O)(=O)NCCN1CC2CN(CCCOc3ccc(C#N)cc3)CC(C1)O2 | >5.5
N#Cc1ccc(OCCCN2CC3CN(CCNS(=O)(=O)c4cccc(F)c4)CC(C2)O3)cc1 | >5.5
Cc1noc(C)c1S(=O)(=O)NCCCN1CC2CN(CCOc3ccc(C#N)cc3)CC(C1)O2 | >5.5
N#Cc1ccc(S(=O)(=O)NCCN2CC3CN(Cc4ccccc4C#N)CC(C2)O3)cc1 | >5.5
N#Cc1ccc(OCCCN2CC3CN(CCNS(=O)(=O)Cc4ccccc4)CC(C2)O3)cc1 | >5.5
N#Cc1ccc(OCCN2CC3CN(CCNS(=O)(=O)Cc4ccc(C(F)(F)F)cc4)CC(C2)O3)cc1 | >5.5
N#Cc1ccc(OCCN2CC3CN(CCCNS(=O)(=O)c4ccccc4F)CC(C2)O3)cc1 | >5.5
Cc1noc(C)c1CN1CC2CN(CCS(=O)(=O)N(Cc3ccc(C#N)cc3)Cc3c(C)noc3C)CC(C1)O2 | >5.5
Cn1cnc(S(=O)(=O)NCCN2CC3CN(CCCOc4ccc(C#N)cc4)CC(C2)O3)c1 | >5.5
N#Cc1ccc(S(=O)(=O)NCCN2CC3CN(CCc4ccc(F)cc4)CC(C2)O3)cc1 | >5.5
N#Cc1ccc(OCCN2CC3CN(CCNS(=O)(=O)Cc4cccc(Cl)c4)CC(C2)O3)cc1 | >5.5

Structure (SMILES) | D10 [mg/kg]
N#Cc1ccc(S(=O)(=O)NCCN2CC3CN(CCOc4ccc(F)cc4)CC(C2)O3)cc1 | >5.5
N#Cc1ccc(S(=O)(=O)NCCN2CC3CN(CCCOc4cccc(F)c4)CC(C2)O3)cc1 | >5.5
N#Cc1ccc(S(=O)(=O)NCCN2CC3CN(Cc4c[nH]c5ccccc45)CC(C2)O3)cc1 | >5.5
N#Cc1ccc(OCCN2CC3CN(CCNS(=O)(=O)c4ccccc4)CC(C2)O3)cc1 | >5.5
CC(C)(C)NS(=O)(=O)CCCN1CC2CN(CCCOc3ccc(C#N)cc3)CC(C1)O2 | >5.5
N#Cc1ccc(S(=O)(=O)NCCN2CC3CN(Cc4c[nH]c5ccc(F)cc45)CC(C2)O3)cc1 | >5.5
N#Cc1ccc(S(=O)(=O)NCCN2CC3CN(CCc4cccc(F)c4)CC(C2)O3)cc1 | >5.5
CC(C)S(=O)(=O)NCCN1CC2CN(C[C@H](O)COc3ccc(C#N)cc3)CC(C1)O2 | >5.5
Cc1noc(C)c1S(=O)(=O)NCCCN1CC2CN(CCCOc3ccc(C#N)cc3)CC(C1)O2 | >5.5
Cc1[nH]c2ccccc2c1CN1CC2CN(CCNS(=O)(=O)c3ccc(C#N)cc3)CC(C1)O2 | >5.5
N#Cc1ccc(S(=O)(=O)NCCN2CC3CN(CCCOc4ccc(C#N)cc4F)CC(C2)O3)cc1 | >5.5
N#Cc1ccc(OCCN2CC3CN(CCNS(=O)(=O)c4ccc(F)cc4)CC(C2)O3)cc1 | >5.5
Cc1nn(C)c(Cl)c1S(=O)(=O)NCCN1CC2CN(CCOc3ccc(C#N)cc3)CC(C1)O2 | >5.5
N#Cc1ccc(OCCCN2CC3CN(CCCNS(=O)(=O)c4ccccc4)CC(C2)O3)cc1 | >5.5
N#Cc1ccc(OCCCN2CC3CN(CCNS(=O)(=O)c4ccc(F)cc4F)CC(C2)O3)cc1 | >5.5
N#Cc1ccc(OCCN2CC3CN(CCNS(=O)(=O)c4ccccc4C#N)CC(C2)O3)cc1 | >5.5
N#Cc1ccc(CN2CC3CN(CCNS(=O)(=O)c4ccc(C#N)cc4)CC(C2)O3)cc1 | >5.5
N#Cc1ccc(S(=O)(=O)NCCN2CC3CN(CCCOc4ccc(F)c(F)c4)CC(C2)O3)cc1 | >5.5
N#Cc1ccc(OCCN2CC3CN(CCCNS(=O)(=O)c4ccc(F)cc4)CC(C2)O3)c(F)c1 | >5.5
N#Cc1ccc(S(=O)(=O)NCCN2CC3CN(CCOc4c(F)cccc4F)CC(C2)O3)cc1 | >5.5
N#Cc1ccc(S(=O)(=O)NCCN2CC3CN(CCOc4ccccc4F)CC(C2)O3)cc1 | >5.5
CS(=O)(=O)NCCN1CC2CN(CCOc3ccc(C#N)cc3)CC(C1)O2 | >5.5

Structure (SMILES) | D10 [mg/kg]
N#Cc1ccc(S(=O)(=O)NCCN2CC3CN(CCCOc4c(F)cc(C#N)cc4F)CC(C2)O3)cc1 | >5.5
N#Cc1ccc(OCCCN2CC3CN(CCNS(=O)(=O)c4ccc(F)cc4)CC(C2)O3)cc1 | >5.5
N#Cc1ccc(CN2CC3CN(CCNS(=O)(=O)Cc4ccccc4)CC(C2)O3)cc1 | >5.5
N#Cc1ccc(OCCCN2CC3CN(CCCNS(=O)(=O)Cc4ccccc4)CC(C2)O3)cc1 | >5.5
N#Cc1ccc(OCCN2CC3CN(CCNS(=O)(=O)c4cccc(C#N)c4)CC(C2)O3)cc1 | >5.5
N#Cc1ccc(S(=O)(=O)NCCN2CC3CN(Cc4coc5ccccc45)CC(C2)O3)cc1 | >5.5
Cn1cnc(S(=O)(=O)NCCN2CC3CN(CCOc4ccc(C#N)cc4)CC(C2)O3)c1 | >5.5
Cc1cc(C)n(CCN2CC3CN(CCNS(=O)(=O)c4ccc(C#N)cc4)CC(C2)O3)n1 | >5.5
N#Cc1ccc(CNS(=O)(=O)CCN2CC3CN(Cc4ccccc4C#N)CC(C2)O3)cc1 | >5.5
Cc1noc(C)c1S(=O)(=O)NCCN1CC2CN(CCCOc3ccc(C#N)cc3)CC(C1)O2 | >5.5
CCCCS(=O)(=O)NCCN1CC2CN(CCCOc3ccc(C#N)cc3)CC(C1)O2 | >5.5
N#Cc1ccc(S(=O)(=O)NCCN2CC3CN(CCc4ccc(F)c(F)c4)CC(C2)O3)cc1 | >5.5
N#Cc1ccc(CNS(=O)(=O)CCN2CC3CN(Cc4ccc(C#N)cc4)CC(C2)O3)cc1 | >5.5
N#Cc1ccc(OCCCN2CC3CN(CCNS(=O)(=O)Cc4ccc(C(F)(F)F)cc4)CC(C2)O3)cc1 | >5.5
CC(C)S(=O)(=O)NCCCN1CC2CN(CCCOc3ccc(C#N)cc3)CC(C1)O2 | >5.5
Cc1nn(C)c(Cl)c1S(=O)(=O)NCCN1CC2CN(CCCOc3ccc(C#N)cc3)CC(C1)O2 | >5.5
COc1ccc(S(=O)(=O)NCCN2CC3CN(CCCOc4ccc(C#N)cc4)CC(C2)O3)cc1 | >5.5
N#Cc1ccc(OCCN2CC3CN(CCCNS(=O)(=O)c4ccc(F)cc4)CC(C2)O3)cc1 | >5.5
N#Cc1ccc(OCCCN2CC3CN(CCNS(=O)(=O)c4ccccc4)CC(C2)O3)cc1 | >5.5
N#Cc1ccc(OCCN2CC3CN(CCCNS(=O)(=O)c4ccc(F)cc4F)CC(C2)O3)cc1 | >5.5
N#Cc1ccc(CN2CC3CN(CCNS(=O)(=O)c4cccc(C#N)c4)CC(C2)O3)cc1 | >5.5
N#Cc1ccc(OCCCN2CC3CN(CCNS(=O)(=O)C(F)(F)F)CC(C2)O3)cc1 | >5.5

Structure (SMILES) | D10 [mg/kg]
N#Cc1ccc(OCCN2CC3CN(CCNS(=O)(=O)Cc4ccccc4)CC(C2)O3)cc1 | >5.5
N#Cc1ccc(S(=O)(=O)NCCN2CC3CN(CCCOc4ccc(F)cc4)CC(C2)O3)cc1 | >5.5
N#Cc1ccc(CN2CC3CN(CCNS(=O)(=O)c4ccccc4C#N)CC(C2)O3)cc1 | >5.5
N#Cc1ccc(S(=O)(=O)NCCN2CC3CN(CCCOc4cc(F)ccc4F)CC(C2)O3)cc1 | >5.5
N#Cc1ccc(S(=O)(=O)NCCN2CC3CN(CCCOc4ccccc4F)CC(C2)O3)cc1 | >5.5
N#Cc1ccc(S(=O)(=O)NCCN2CC3CN(Cc4ccc(OC(F)F)cc4)CC(C2)O3)cc1 | >5.5
N#Cc1ccc(OCCCN2CC3CN(CCNS(=O)(=O)c4ccc(C#N)cc4)CC(C2)O3)cc1 | >5.5
CS(=O)(=O)NCCN1CC2CN(CCCOc3ccc(C#N)cc3)CC(C1)O2 | >5.5
N#Cc1ccc(OCCCN2CC3CN(CCNS(=O)(=O)c4ccccc4C#N)CC(C2)O3)cc1 | >5.5
N#Cc1ccc(OCCN2CC3CN(CCNS(=O)(=O)c4ccc5c(c4)CCO5)CC(C2)O3)cc1 | >5.5
N#Cc1ccc(OCCN2CC3CN(CCNS(=O)(=O)c4ccc(C#N)cc4)CC(C2)O3)cc1 | >5.5
O=S(=O)(NCCN1CC2CN(Cc3ccccc3)CC(C1)O2)c1ccc(F)cc1 | >5.5
CC(C)(C)OC(=O)NCCN1CC2CN(CCNS(=O)(=O)c3ccc(F)cc3)CC(C1)O2 | >5.5
N#Cc1ccc(OCCN2CC3CN(CCCNS(=O)(=O)Cc4ccccc4)CC(C2)O3)cc1 | >5.5
N#Cc1ccc(OCCN2CC3CN(CCCNS(=O)(=O)c4ccc(F)cc4F)CC(C2)O3)c(F)c1 | >5.5
N#Cc1ccc(OCCCN2CC3CN(CCNS(=O)(=O)Cc4cccc(Cl)c4)CC(C2)O3)cc1 | >5.5
N#Cc1ccc(S(=O)(=O)NCCN2CC3CN(CCOc4ccc(C#N)cc4F)CC(C2)O3)cc1 | >5.5
N#Cc1ccc(S(=O)(=O)NCCN2CC3CN(Cc4nc5ccccc5o4)CC(C2)O3)cc1 | >5.5
N#Cc1ccc(S(=O)(=O)NCCN2CC3CN(Cc4ccc(F)cc4)CC(C2)O3)cc1 | >5.5
COc1ccc(S(=O)(=O)NCCN2CC3CN(CCOc4ccc(C#N)cc4)CC(C2)O3)cc1 | >5.5
